“And” between values parts separate entries of the source, which are not always exact repeats. Identical values can stand only once. Marks after values point to notes of the source that are not given here.
Experiments:
[1] = tested on: mice; assay: Electroconvulsive threshold test (MEST test); format: in vivo, mouse
[2] = tested on: mice; assay: Hot plate test; format: in vivo, mouse; conditions: dose 30 mg/kg i.p.; for latency time to pain reaction: mean ± SEM, vehicle 27.51 ± 1.36 s, cutoff 60 s
Procedure: (§1) Male CD-1 mice weighing 18–24 g were used in the in vivo experiment. The animals were kept at room temperature of 20 ± 2 °C under standard conditions (12:12 h light-dark cycle, standard pellet diet, tap water). All the experiments were performed between 8 a.m. and 3 p.m. For the experiments, the animals were selected in a random way and sacrificed by cervical dislocation immediately after the assay. The experimental protocol was approved by the Local Ethics Commission for Animal Experiments of the Jagiellonian University in Cracow, and all experiences were conducted in accordance with the 1996 NIH Guide for the Care and Use of Laboratory Animals.
(§2) The tested compounds 12 (N-[{4-(3,4-dichlorophenyl)-piperazin-1-yl}-methyl]-3-methylpyrrolidine-2,5-dione), 13 (N-[{4-(3-trifluoromethylphenyl)-piperazin-1-yl}-methyl]-3-methylpyrrolidine-2,5-dione), 15 (N-[{4-(3-methylphenyl)-piperazin-1-yl}-methyl]-3-methylpyrrolidine-2,5-dione), 23 (N-[{4-(3,4-dichlorophenyl)-piperazin-1-yl}-methyl]-pyrrolidine-2,5-dione), and 24 (N-[{4-(3-trifluoromethylphenyl)-piperazin-1-yl}-methyl]-pyrrolidine-2,5-dione) were synthesized at the Department of Medicinal Chemistry, Jagiellonian University Medical College in Cracow (Scheme 1). The synthesis of the investigated compounds was described earlier (Rybka et al. [2014]). The investigated compounds were suspended in a 0.5 % aqueous solution of methylcellulose (Loba Chemie, Germany). Lacosamide (Vimpat, UCB Pharma, Belgium), pilocarpine (Sigma-Aldrich, Germany), scopolamine butylbromide (Sigma-Aldrich, Germany), and formaldehyde (POCh, Poland) were dissolved in distilled water. Agents were administered intraperitoneally (i.p.) at a volume of 0.1 ml/10 g. Control animals were administered an equivalent volume of vehicle (0.5 % aqueous solution of methylcellulose) via the same route as the test compounds.
In the hot plate test, the mice were i.p. pretreated either with the test compound or vehicle before placing the animal on the hot plate apparatus (Panlab/Harvard Apparatus, Spain). This apparatus has an electrically heated surface and is supplied with a temperature controller that maintains the temperature at 55–56 °C. The time to the first reaction (licking or jumping) of mice to a nociceptive stimulus was recorded. The cutoff time was established to 60 s to avoid paw tissue damage (Sałat et al. [2014]).

[3] = tested on: mice; assay: Spontaneous locomotor activity (photoresistor actometers); format: in vivo, mouse
Procedure: as §1, §2
Locomotor activity was measured with photoresistor actometers (Ugo Basile, Italy) connected to a counter for the recording of light-beam interruptions. Mice were individually placed in plastic cages for 30 min habituation period, and then the number of light-beam crossings was counted for a 30-min session. The cages were cleaned up with 70 % ethanol after each mouse.

[4] = tested on: V. harveyi BB7; assay: Vibrio harveyi antimutagenicity assay (vs NQNO), BB7 strain; format: cell-based; conditions: for inhibition of NQNO-induced mutagenicity in BB7 strain (in words): NQNO 40 ng/ml; for Antimutagenicity BB7 number of revertants Mean ± SD: test compound plus NQNO 40 ng/ml (NQNO line: mutagen only); for Antimutagenicity BB7 Inhib. (%) of mutagenicity: test compound plus NQNO 40 ng/ml, 25–40 % moderate, 40 % or more strong
Procedure: (§3) Two V. harveyi strains were used in the experiments: wild-type BB7 and genetically modified BB7XM (the UV-hypersensitive strain bearing plasmid pAB91273), which were described previously by Czyż et al. ([2000]).
(§4) Antimutagenicity assay was performed according to previously described procedures (Czyż et al. [2002]; Pękala et al. [2013]). […] This was calculated as follows: Inhibition (%) = 100 − [(R1/R2) × 100], where R1 is the number of revertants per plate induced by test compound plus mutagen and R2 is the number of revertants in the plate containing only the mutagen (Słoczyńska et al. [2010]). No antimutagenic effect was considered when the inhibition was less than 25 %; a moderate effect for an inhibition value between 25 and 40 % and a strong antimutagenicity were recorded for inhibition higher than 40 % (Gulluce et al. [2010]).

[5] = tested on: V. harveyi BB7; assay: Vibrio harveyi mutagenicity assay, BB7 strain; conditions: 40 ng/ml; for Mutagenicity BB7 M.I. (mutagenic index): positive assay when M.I. ≥ 2
Procedure: as §3
(§5) Mutagenicity assay was performed as described previously (Czyż et al. [2000]). All experiments were carried out in triplicate and the results were expressed as mutagenic index (M.I. = the number of revertant colonies induced in the tested sample/the number of spontaneous revertants in the negative control) (Gulluce et al. [2010]).

[6] = tested on: mice; assay: Formalin hind paw test; format: in vivo, mouse; conditions: dose 30 mg/kg i.p.; for reduction of the duration of the licking response, first (neurogenic) phase: 0–5 min after 5 % formalin; for antinociceptive effect (reduction of licking response), second (late) phase: 15–30 min after 5 % formalin
Procedure: as §1, §2
Antinociceptive activity in the formalin hind paw test was examined according to Laughlin et al. ([2002]). Twenty microliters of a 5 % formalin solution was injected intraplantarly (i.pl.) into the right hind paw of the mouse. […] Time (in seconds) spent on licking or biting the injected hind paw in selected intervals, 0–5 and 15–30 min, was measured in each experimental group and was an indicator of nociceptive behavior. In mice, intraplantarly injection of diluted formalin produces a biphasic nocifensive behavioral response (i.e., licking or biting the injected hind paw). The acute nociceptive phase lasts for the first 5 min, whereas the second inflammatory phase occurs between 15 and 30 min after formalin injection.

[7] = tested on: V. harveyi BB7XM; assay: Vibrio harveyi antimutagenicity assay (vs NQNO), BB7XM strain; format: cell-based; conditions: for Antimutagenicity BB7XM number of revertants Mean ± SD: test compound plus NQNO 40 ng/ml (NQNO line: mutagen only); for Antimutagenicity BB7XM Inhib. (%) of mutagenicity: test compound plus NQNO 40 ng/ml, 25–40 % moderate, 40 % or more strong
Procedure: as §3, §4

[8] = tested on: mice; assay: Pilocarpine-induced seizure test; format: in vivo, mouse
Procedure: as §1, §2
The experimental procedure was originally described by Turski et al. ([1987]). Seizures were induced in mice by i.p. injection of pilocarpine at a dose of 400 mg/kg. Forty-five minutes before pilocarpine, animals were also pretreated with scopolamine butylbromide (1 mg/kg, i.p.) to reduce peripheral autonomic side effects and masticatory and stereotyped movements (Kowalczyk et al. [2014]). Direct observation was performed for 60 min to monitor the latency time to the onset of the limbic seizures, characterized by a subsequent development of behavioral symptoms, such as tremor, head bobbing, and myoclonic movements of the forelimbs progressing to recurrent myoclonic convulsions with rearing, salivation, falling, and status epilepticus (Łuszczki et al. [2008]; Turski [2000]).

[9] = tested on: V. harveyi BB7XM; assay: Vibrio harveyi mutagenicity assay, BB7XM strain; conditions: 40 ng/ml; for Mutagenicity BB7XM M.I. (mutagenic index): positive assay when M.I. ≥ 2
Procedure: as §3, §5

[10] = tested on: L-type calcium channel (dihydropyridine site); assay: L-type Ca channel (dihydropyridine site) [3H]nitrendipine binding assay; conditions: rat cerebral cortex
[11] = dose 30 mg/kg i.p., 4 h before the test, value with 95 % confidence interval
[12] = dose 30 mg/kg i.p., 30-min session
[13] = dose 100 mg/kg i.p., 4 h before pilocarpine 400 mg/kg
[14] = dose 100 mg/kg i.p., 4 h before pilocarpine

CC1CC(=O)N(CN2CCN(c3cccc(C(F)(F)F)c3)CC2)C1=O (stereo not shown) [Compound 13, N-[{4-(3-trifluoromethylphenyl)-piperazin-1-yl}-methyl]-3-methylpyrrolidine-2,5-dione]
CS50 (mA) (CI) [1, 11]: 9.37 (5.47–16.07)* mA | latency time to pain reaction [2]: 56.03 ± 1.75 s | influence on locomotor activity (number of crossings, in words) [3, 12]: significantly reduced the number of crossings | inhibition of NQNO-induced mutagenicity in BB7 strain (in words) [4]: moderate inhibitors | Antimutagenicity BB7 number of revertants Mean ± SD [4]: 25 ± 4 | Antimutagenicity BB7 Inhib. (%) of mutagenicity [4]: (35) % | Mutagenicity BB7 number of revertants Mean ± SD [5]: 22 ± 3 | Mutagenicity BB7 M.I. (mutagenic index) [5]: 1.4 | reduction of the duration of the licking response, first (neurogenic) phase [6]: 79% | antinociceptive effect (reduction of licking response), second (late) phase [6]: 89% | Antimutagenicity BB7XM number of revertants Mean ± SD [7]: 20 ± 4 | Antimutagenicity BB7XM Inhib. (%) of mutagenicity [7]: (16) % | Latency to status epilepticus (s) ± SEM [8, 13]: 296.7 ± 9.63 s | Mutagenicity BB7XM number of revertants Mean ± SD [9]: 20 ± 5 | Mutagenicity BB7XM M.I. (mutagenic index) [9]: 1.7

O=C1CCC(=O)N1CN1CCN(c2cccc(C(F)(F)F)c2)CC1 [Compound 24, N-[{4-(3-trifluoromethylphenyl)-piperazin-1-yl}-methyl]-pyrrolidine-2,5-dione]
increase of electroconvulsive threshold (ECT) vs vehicle ([1]; dose 10 mg/kg i.p., 4 h before the test): 68% | CS50 (mA) (CI) ([1]; dose 10 mg/kg i.p., 4 h before the test, value with 95 % confidence interval): 11.11 (8.12–15.20)*** mA | increase of electroconvulsive threshold (ECT) vs vehicle ([1]; dose 30 mg/kg i.p., 4 h before the test): 114% | CS50 (mA) (CI) [1, 11]: 14.01 (9.05–21.70)*** mA | prolongation of latency time to pain reaction vs vehicle [2]: 72% | latency time to pain reaction [2]: 47.23 ± 3.77 s | influence on locomotor activity (number of crossings, in words) [3, 12]: significantly reduced the number of crossings | inhibition of NQNO-induced mutagenicity in BB7 strain (in words) [4]: weakly suppressed | Antimutagenicity BB7 number of revertants Mean ± SD [4]: 31 ± 5 | Antimutagenicity BB7 Inhib. (%) of mutagenicity [4]: (18) % | Mutagenicity BB7 number of revertants Mean ± SD [5]: 25 ± 4 | Mutagenicity BB7 M.I. (mutagenic index) [5]: 1.6 | reduction of the duration of the licking response, first (neurogenic) phase [6]: 62% | antinociceptive effect (reduction of licking response), second (late) phase [6]: 94% | Antimutagenicity BB7XM number of revertants Mean ± SD [7]: 29 ± 3 | Antimutagenicity BB7XM Inhib. (%) of mutagenicity [7]: (0) % | Anticonvulsant effect (%) (prolongation of latency time to seizures vs vehicle) [8, 14]: 1.2% | Latency to status epilepticus (s) ± SEM [8, 13]: 346.7 ± 25.92 s | Mutagenicity BB7XM number of revertants Mean ± SD [9]: 19 ± 1 | Mutagenicity BB7XM M.I. (mutagenic index) [9]: 1.6

COC[C@@H](NC(C)=O)C(=O)NCc1ccccc1 [Lacosamide, reference compound]
CS50 (mA) (CI) ([1]; dose 10 mg/kg i.p., 30 min before the test, 10 mg/kg): >25 mA | CS50 (mA) (CI) ([1]; dose 10 mg/kg i.p., 30 min before the test, listed as lacosamide, 10 mg/kg): above 25 mA | antinociceptive activity in the hot plate test (in words) [2]: significantly prolonged the latency time | influence on locomotor activity (number of crossings, in words) [3, 12]: significant decrease of locomotor activity | reduction of the duration of the licking response, first (neurogenic) phase [6]: 69% | antinociceptive effect (reduction of licking response), second (late) phase [6]: 90% | Anticonvulsant effect (%) (prolongation of latency time to seizures vs vehicle) ([8]; dose 30 mg/kg i.p., 30 min before pilocarpine): 12.8% | Latency to status epilepticus (s) ± SEM ([8]; dose 30 mg/kg i.p., 30 min before pilocarpine 400 mg/kg): 382.1 ± 22.86 s | Latency to status epilepticus (s) ± SEM ([8]; dose 40 mg/kg i.p., 30 min before pilocarpine 400 mg/kg): 507.7 ± 52.11 s | Anticonvulsant effect (%) (prolongation of latency time to seizures vs vehicle) ([8]; dose 40 mg/kg i.p., 30 min before pilocarpine, 40 mg/kg): 50% and 49.8%

O=C1NC(=O)C(c2ccccc2)(c2ccccc2)N1 [Phenytoin, reference compound]
% inhibition of control specific binding ([10]; 10 μM): 6.6% | % inhibition of control specific binding ([10]; 100 μM): 57.8%

N-[{4-(3-methylphenyl)-piperazin-1-yl}-methyl]-3-methylpyrrolidine-2,5-dione [Compound 15]
CS50 (mA) (CI) [1, 11]: 8.11 (7.12–9.24)*** mA | prolongation of latency time to pain reaction vs vehicle [2]: 71% | latency time to pain reaction [2]: 47.12 ± 6.14 s | influence on locomotor activity (number of crossings, in words) ([3]; mouse, in vivo, ip, 30 mg/kg): significantly reduced the number of crossings | reduction of the duration of the licking response, first (neurogenic) phase [6]: 52% | antinociceptive effect (reduction of licking response), second (late) phase [6]: 66% | Anticonvulsant effect (%) (prolongation of latency time to seizures vs vehicle) [8, 14]: 18.5% | Latency to status epilepticus (s) ± SEM [8, 13]: 406.0 ± 59.77 s

— paper PMC4749642, “Evaluation of anticonvulsant and antinociceptive properties of new N-Mannich bases derived from pyrrolidine-2,5-dione and 3-methylpyrrolidine-2,5-dione” (Naunyn-Schmiedeberg's Archives of Pharmacology, 2015)
